Measured values from US20250188110A1, “SPECIFIC SMALL MOLECULE INHIBITORS THAT BLOCK KMT9 METHYLTRANSFERASE ACTIVITY AND FUNCTION” (ALBERT-LUDWIGS-UNIVERSITÄT FREIBURG, priority 2021, published 2025).
pIC50, pKd: −log10 of the molar value.

Legend:
[1] = biological target: T1, KMT9 (Homo sapiens, UniProt Q9Y5N5); test: Microscale thermophoresis (MST) KMT9 binding; conditions: microscale thermophoresis, His-tag labelled KMT9 (20 nM); read-out: MST
T1 sequence (Q9Y5N5 1-214): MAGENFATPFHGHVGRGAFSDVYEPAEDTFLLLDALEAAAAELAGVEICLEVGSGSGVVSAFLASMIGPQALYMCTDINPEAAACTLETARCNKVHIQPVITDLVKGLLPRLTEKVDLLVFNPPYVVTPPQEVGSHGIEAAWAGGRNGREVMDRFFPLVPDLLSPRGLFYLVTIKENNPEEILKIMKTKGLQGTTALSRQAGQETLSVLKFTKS
T1 sequence (Q9UI30 1-120 isoform Q9UI30-2 partner): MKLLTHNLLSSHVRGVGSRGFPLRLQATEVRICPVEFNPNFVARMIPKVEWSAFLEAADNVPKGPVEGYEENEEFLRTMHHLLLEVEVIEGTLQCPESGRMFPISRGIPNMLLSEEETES
Outline: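 Kd from microscale thermophoresis: compound series against 20 nM His-KMT9 labelled via RED-Tris-NTA, buffer 25 mM HEPES (pH 7.5)/100 mM NaCl/1 mM DTT/0.05% Tween, 40% MST power, 100% LED. Reported as classes: A ≤10 nM, B >10–100 nM, C >100–1000 nM, D >1000 nM.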

[2] = biological target: T1, KMT9; test: KMT9 thermal shift assay (SyproOrange); type: binding; conditions: ΔTm; 500 µM compound, 2 μM KMT9, 5X SO; read-out: Thermal shift
Outline: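 ΔTm versus DMSO-only control is reported in bins (>20 K, 15–20 K, 10–15 K, ≤10 K), using Tm from Boltzmann sigmoidal fits of SyproOrange melt curves. KMT9 with compound in pH 8.5 BTP buffer containing MgCl2 and DTT was preincubated at 25° C, then ramped 1° C per 15 s up to 95° C.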

[3] = biological target: T1, KMT9; test: KMT9 methyltransferase inhibition assay, 3H-SAM scintillation (entries 1-154); type: biochemical; conditions: entries 1-154: 3H-SAM assay, 25 nM KMT9, 5 μM ETF1
Outline: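 Tritium transfer from SAM (0.3 μM 3H-SAM, 0.7 μM unlabelled, final) to 5 μM ETF1 fragment by 25 nM KMT9 was measured after 2 h at 30° C, pH 8.5. Precipitated peptide was collected on filters and scintillation counted; IC50 came from a four-parameter fit of inhibition normalised to controls.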

Compound | pKd [1] | ΔTm at 500 µM [2] | pIC50 [3]
CNc1ncnc2c1ccn2[C@@H]1C[C@H](CN(CCCNCCc2ccccc2)c2cncs2)[C@@H](O)[C@H]1O [439 (311), (1R,2S,3R,5R)-3-(4-(Methylamino)-7H-pyrrolo[2,3-d]pyrimidin-7-yl)-5-(((3-(phenethylamino)propyl)(thiazol-5-yl)amino)methyl) cyclopentane-1,2-diol] | < 6.00 | ≤ 10 °C | 5.00 to 6.00
CNc1ncnc2c1ccn2[C@@H]1C[C@H](CN(CCCNCCc2ccccc2)c2ccccc2)[C@@H](O)[C@H]1O [440 (312), (1R,2S,3R,5R)-3-(4-(Methylamino)-7H-pyrrolo[2,3-d]pyrimidin-7-yl)-5-(((3-(phenethylamino)propyl)(phenyl)amino)methyl)cyclopentane-12-diol] | < 6.00 | ≤ 10 °C | < 5.00
CNc1ncnc2c1ccn2[C@@H]1C[C@H](CN(CCCNCCc2ccccc2)c2cnn(C)c2)[C@@H](O)[C@H]1O [441 (313), (1S,2R,3R,5R)-3-(((1-Methyl-1H-pyrazol-4-yl)(3-(phenethylamino)propyl)amino)methyl)-5-(4-(methylamino)-7H-pyrrolo[2,3-d]pyrimidin-7-yl) cyclopentane-1,2-diol] | < 6.00 | ≤ 10 °C | < 5.00
CNc1ncnc2c1ccn2[C@@H]1C[C@H](CN(CCCNCCc2ccccc2)c2cn[nH]c2)[C@@H](O)[C@H]1O [442 (314), (1R,2S,3R,5R)-3-(4-(Methylamino)-7H-pyrrolo[2,3-d]pyrimidin-7-yl)-5-(((3-(phenethylamino)propyl)(1H-pyrazol-4-yl)amino)methyl) cyclopentane-1,2-diol] | 6.00 to 7.00 | 10 to 15 °C | 5.00 to 6.00
CNc1ncnc2c1ccn2[C@@H]1C[C@H](CN(CCCNCCc2ccccc2)c2ccn(C)n2)[C@@H](O)[C@H]1O [443 (315), (1R,2S,3R,5R)-3-[4-(Methylamino)pyrrolo[2,3-d]pyrimidin-7-yl]-5-{[(1-methylpyrazol-3-yl)({3-[(2-phenylethyl)amino]propyl})amino]methyl}cyclopentane-1,2-diol] | < 6.00 | ≤ 10 °C | < 5.00
CNc1ncnc2c1ccn2[C@@H]1C[C@H](CN(CCCNCCc2ccccc2)c2cc[nH]n2)[C@@H](O)[C@H]1O [444 (316)] | < 6.00 | ≤ 10 °C | 5.00 to 6.00
CNc1ncnc2c1ccn2[C@@H]1C[C@H](CN2CCC23CNC3)[C@@H](O)[C@H]1O [445 (317), (1S,2R,3R,5R)-3-((1,6-Diazaspiro[3.3]heptan-1-yl)methyl)-5-(4-(methylamino)-7H-pyrrolo[2,3-d]pyrimidin-7-yl) cyclopentane-1,2-diol] | < 6.00 | ≤ 10 °C | < 5.00
CNc1ncnc2c1ccn2[C@@H]1C[C@H](CN2CCC23CCNC3)[C@@H](O)[C@H]1O (stereo partly drawn) [446 (318), (1S,2R,3R,5R)-3-{1,6-Diazaspiro[3.4]octan-1-ylmethyl}-5-[4-(methylamino)pyrrolo[2,3-d]pyrimidin-7-yl]cyclopentane-1,2-diol] | < 6.00 | ≤ 10 °C | < 5.00
CNc1ncnc2c1ccn2[C@@H]1C[C@H](CN2CCC23CCCNC3)[C@@H](O)[C@H]1O (stereo partly drawn) [447 (319), (1S,2R,3R,5R)-3-{1,6-Diazaspiro[3.5]nonan-1-ylmethyl}-5-[4-(methylamino)pyrrolo[2,3-d]pyrimidin-7-yl]cyclopentane-1,2-diol] | < 6.00 | ≤ 10 °C | < 5.00
CNc1ncnc2c1ccn2[C@@H]1C[C@H](CN2CCCCC23CCNC3)[C@@H](O)[C@H]1O (stereo partly drawn) [448 (320), (1S,2R,3R,5R)-3-{2,6-diazaspiro[4.5]decan-6-ylmethyl}-5-[4-(methylamino)pyrrolo[2,3-d]pyrimidin-7-yl]cyclopentane-1,2-diol] | < 6.00 | ≤ 10 °C | < 5.00
